# Experimental data as given in patent US20240207216A1, “COMPOSITIONS AND METHOD FOR TREATING GUT PERMEABILITY CAUSED BY HYDROGEN SULFIDE PRODUCING BACTERIA” (UNM RAINFOREST INNOVATIONS, priority 2022, published 2024).
# How the values were obtained:
# [1] = tested on: Snail; experiment: DSV-induced Snail protein expression by Western blot; type: cell-based, Human; details: 100 nM, 2 h before DSV MOI 20 for 24 h; DSV alone 7.14±0.73
# Protocol: FIG. 16. Rapamycin reduces DSV-induced Snail protein expression. Polarized Caco-2 cells were treated with 100 nM rapamycin for two hours, followed by DSV infection (MOI 20) for 24 hours. Cells were harvested and lysed. (A) Protein lysate was analyzed for Snail expression by Western blotting. (B) Quantitation of Snail expression from Western blot in (A). DSV: 7.14±0.73; DSV+Rapamycin: 3.10±0.74, **p<0.01.
# Human colonic epithelial cells Caco-2 were purchased from the American Type Culture Collection (ATCC, Manassas, VA). Cells were grown in DMEM+20% FBS+penicillin and streptomycin (Thermo Fisher Scientific, Inc., Waltham, MA). Cells were grown at 37° C. in a humidified incubator with 5% CO2. To allow polarization and differentiation, cells were seeded at a density of 5×10^3 cells/well in 12-well 0.4 μm trans-well inserts for three weeks. Twenty-four hours before infection, growth medium was replaced with colorless medium (DMEM+20^0/o FBS) without antibiotics. […]
# Cells were lysed in lysis buffer (Thermo Fisher Scientific, Inc., Waltham, MA; catalog #87787) containing protease and phosphatase inhibitors (Thermo Fisher Scientific, Inc., Waltham, MA; catalog #1861281) for 20 minutes at 4° C. with shaking. […] Protein concentration in the supernatants was determined with Bradford reagent (Bio-Rad Laboratories, Inc., Hercules, CA). […]
# [2] = tested on: sulfate reducing bacteria; details: batch culture; cited from earlier work
# [3] = tested on: PI3K/Akt pathway; experiment: DSV-induced PI3K/Akt signaling with receptor antagonists; type: cell-based, murine; details: pretreatment of cells before DSV
# Protocol: PI3k/Akt pathway is activated downstream of receptors such as RTKs and G-protein coupled receptors and also by TLRs activation which is often observed in the case of infections with various bacteria. Thus, cells were treated with different TLR antagonists to check for the involvement of TLR 2, TLR 4, or TLR 5 in DSV-mediated activation of PI3K/Akt pathway. […] DSV-induced phosphorylation of AKT was inhibited by C29 (DSV:3.18±0.30; DSV+C29: 1.58±0.29, p<0.05, FIG. 14, FIG. 15A). […] PI3K/Akt is classically activated by a vast number of stimuli through receptor tyrosine kinases (RTK). Thus, tryphostin AS1478, a common tyrosine kinase inhibitor, was used as an antagonist to EGFR signaling to test whether DSV-induced PI3k/Akt/TNF/iNOS pathway was dependent on RTK-mediated signaling.
# [4] = tested on: p-Akt/Akt; experiment: DSV-induced Akt phosphorylation, Western blot in RAW cells; type: cell-based, murine; details: 200 μM, 3 h before DSV 4 h; DSV alone 3.18±0.30
# Protocol: (§1) RAW 264.7 murine macrophage-like cells were grown in DMEM+10% FBS without any use of antibiotics or antimycotics. Cells were grown at 37° C. in a humidified incubator with 5% CO2. Prior to the day of infection, 8×10^5 cells were plated in a six-well plate and infected with DSV at multiplicity of infection 20 (MOI 20) for various times. For drug treatments, cells were incubated with LY294002 at 10 μM or 50 μM for one hour followed by DSV infection for 30 minutes or four hours. For TL2-C29 treatment, cells were incubated with the inhibitor at 200 μM for three hours followed by infection with DSV for four hours.
# (§2) Cells were lysed in Lysis buffer containing protease and phosphatase inhibitors (Thermo Fisher Scientific, Inc., Waltham, MA) for 20 minutes at 4° C. Lysates were centrifuged at 12,000 rpm for five mins at 4° C. and supernatants were collected. Protein concentration in the supernatants was determined with Bradford reagent (Bio-Rad Laboratories, Inc., Hercules, CA). 50 μg of protein samples were run on SDS-PAGE (4-20% tris-glycine) and transferred to nitrocellulose membranes. Membranes were blocked in 5% milk in PBS-T (0.1% Tween 20) for 30 minutes followed by overnight incubation in primary antibodies in cold room. All antibodies except iNOS were purchased from Cell Signaling Technology (Danvers, MA): Actin (4970), p-AktS473(4060), p-Akt T308(13038), Akt (9272), p-P70S6K (9205), P70S6K (2708, TNF-α (19948). iNOS antibody was purchased from Abcam (Cambridge United Kingdom). Antibodies were diluted as recommended by the manufacturer. The following day, blots were washed with PBS-T and incubated with secondary antibodies (Cell Signaling Technology, Danvers, MA) at room temperature for one hour (dilution of 1:2000) and developed using enhanced chemiluminescence HRP signal (Thermo Fisher Scientific, Inc., Waltham, MA).
# (§3) All graphs were generated using PRISM 9.4.1 GraphPad Software Inc., San Diego, CA). Data is plotted as Mean±SEM relative to control. Each experiment was conducted at least three independent times. […]
# [5] = tested on: TNF-α; experiment: DSV-induced cellular TNF-α expression, Western blot in RAW cells; type: cell-based, murine; details: 200 μM, 3 h before DSV 4 h; DSV alone 24.67±2.51
# Protocol: as §1, §2, §3
# [6] = tested on: secreted TNF-α; experiment: DSV-induced secreted TNF-α, Western blot of RAW cell culture supernatant; type: cell-based, murine; details: 200 μM, 3 h before DSV 4 h; DSV alone 38.09±5.188
# Protocol: FIG. 12. LY294002 inhibits DSV-induced activation of PI3K/Akt/TNF pathway. (A) RAW cells were treated with LY at either 10 μM or 50 μM for one hour before infection with DSV for four hours. Cells were lysed and protein lysate was prepared. Fifty μg of protein lysate was separated on SDS-PAGE and analyzed for p-Akt, Akt, TNF, iNOS, p-p70S6K, and total p70S6K by Western blotting. Actin was used as a loading control. (B) Quantification of p-Akt-Akt Western blot. (C) Quantification of p-P70/P70 Western blot. (D) Quantification of TNF-α/actin Western blot. (E) Post-infection, RAW cell culture supernatant was collected and proteins were precipitated using ethanol precipitation. Proteins were resuspended in PBS and 50 μg of proteins were loaded on SDS-PAGE and secreted TNF-α was detected using TNF-α antibody. Actin was used as a loading control.
# as §1
# Cells were lysed in Lysis buffer containing protease and phosphatase inhibitors (Thermo Fisher Scientific, Inc., Waltham, MA) for 20 minutes at 4° C. Lysates were centrifuged at 12,000 rpm for five mins at 4° C. and supernatants were collected. Protein concentration in the supernatants was determined with Bradford reagent (Bio-Rad Laboratories, Inc., Hercules, CA). 50 μg of protein samples were run on SDS-PAGE (4-20% tris-glycine) and transferred to nitrocellulose membranes. Membranes were blocked in 5% milk in PBS-T (0.1% Tween 20) for 30 minutes followed by overnight incubation in primary antibodies in cold room. […]
# [7] = tested on: iNOS; experiment: DSV-induced iNOS expression, Western blot in RAW cells; type: cell-based, murine; details: 200 μM, 3 h before DSV 4 h; DSV alone 30.25±6.82
# Protocol: as §1, §2, §3
compound,measurement,setting,value
"CO[C@H]1C[C@@H]2CC[C@@H](C)[C@@](O)(O2)C(=O)C(=O)N2CCCC[C@H]2C(=O)O[C@H]([C@H](C)C[C@@H]2CC[C@@H](O)[C@H](OC)C2)CC(=O)[C@H](C)/C=C(\C)[C@@H](O)[C@@H](OC)C(=O)[C@H](C)C[C@H](C)/C=C/C=C/C=C/1C [Rapamycin, rapamycin]",Snail expression from Western blot,[1],3.10±0.74
"[Mg+2].[O-][O-] [magnesium peroxide (MgO2), magnesium peroxide]",number of sulfate reducing bacteria,[2],inhibited
same,sulfate reducing rate (SRR),[2],inhibited
same,sulfide concentration,[2],inhibited
c1ccc(Cn2c(Sc3ncnc4c3sc3ncccc34)nnc2-c2ccncc2)cc1 [TH1020],effect on DSV-induced PI3K/Akt signaling,[3],Neither TLR4 antagonist TLR-IN-C34 nor TLR5 antagonist TH1020 had any discernable effect
CC(=O)N[C@H]1[C@@H](OC(C)C)O[C@H](COC(C)=O)[C@@H](OC(C)=O)[C@@H]1OC(C)=O [TLR-IN-C34],effect on DSV-induced PI3K/Akt signaling,[3],Neither TLR4 antagonist TLR-IN-C34 nor TLR5 antagonist TH1020 had any discernable effect
COc1cc2ncnc(Nc3cccc(Cl)c3)c2cc1OC [tryphostin AS1478],effect on DSV-induced PI3K/Akt signaling,[3],No inhibition
COc1cccc(C=Nc2cccc(C(=O)O)c2C)c1O [C29],"p-Akt/Akt, normalized to control",[4],1.58±0.29
same,"cellular TNF-α protein, normalized to control",[5],8.57±2.81
same,"secreted TNF-α, normalized to control",[6],1.103±0.03408
same,"iNOS protein expression, normalized to control",[7],2.32±1.48
